Results: the NIST ThermoML archive (doi:10.1016/j.jct.2016.10.023)
± gives the expanded uncertainty stated by the source.

Test: xn = mol fraction of the nth substance listed
Conditions: Constant-volume piezometry

CCCCC [pentane] + CCCO
Conditions	mass density [kg/m3]
492.15 K, 4052 kPa, Gas, x1 = 0.5	144.33 ± 0.56
492.15 K, 4112 kPa, Gas, x1 = 0.5	154.72 ± 0.62
493.15 K, 888 kPa, Gas, x1 = 0.5	15.54 ± 0.05
493.15 K, 1226 kPa, Gas, x1 = 0.8	22.56 ± 0.07
493.15 K, 1421 kPa, Gas, x1 = 0.2	24.96 ± 0.08
493.15 K, 1591 kPa, Gas, x1 = 0.5	30.02 ± 0.09
493.15 K, 1810 kPa, Gas, x1 = 0.8	36.74 ± 0.11
493.15 K, 2098 kPa, Gas, x1 = 0.5	40.54 ± 0.13
493.15 K, 2429 kPa, Gas, x1 = 0.5	51.17 ± 0.16
493.15 K, 2601 kPa, Gas, x1 = 0.8	58.5 ± 0.18
493.15 K, 2706 kPa, Gas, x1 = 0.2	53.08 ± 0.16
493.15 K, 2984 kPa, Gas, x1 = 0.5	67.61 ± 0.21
493.15 K, 3042 kPa, Gas, x1 = 0.8	73.9 ± 0.23
493.15 K, 3148 kPa, Gas, x1 = 0.5	72.7 ± 0.23
493.15 K, 3184 kPa, Gas, x1 = 0.9	83.5 ± 0.26
493.15 K, 3462 kPa, Gas, x1 = 0.5	89.03 ± 0.29
493.15 K, 3598 kPa, Gas, x1 = 0.5	95.98 ± 0.32
493.15 K, 3742 kPa, Gas, x1 = 0.8	106.55 ± 0.34
493.15 K, 3862 kPa, Fluid (supercritical or subcritical phases), x1 = 0.9	123.52 ± 0.67
493.15 K, 3941 kPa, Gas, x1 = 0.5	122.07 ± 0.41
493.15 K, 3987 kPa, Fluid (supercritical or subcritical phases), x1 = 0.9	134.31 ± 0.71
493.15 K, 4087 kPa, Gas, x1 = 0.5	144.32 ± 0.53
493.15 K, 4129 kPa, Liquid, x1 = 0.2	471.17 ± 0.96
493.15 K, 4161 kPa, Gas, x1 = 0.5	154.71 ± 0.57
493.15 K, 4227 kPa, Gas, x1 = 0.5	165.38 ± 0.75
493.15 K, 4237 kPa, Fluid (supercritical or subcritical phases), x1 = 0.8	140.51 ± 0.71
493.15 K, 4263 kPa, Gas, x1 = 0.5	183.12 ± 1.2
493.15 K, 4268 kPa, Fluid (supercritical or subcritical phases), x1 = 0.9	164.19 ± 0.89
493.15 K, 4335 kPa, Fluid (supercritical or subcritical phases), x1 = 0.5	282.8 ± 1.6
493.15 K, 4335 kPa, Fluid (supercritical or subcritical phases), x1 = 0.8	156.27 ± 0.87
493.15 K, 4414 kPa, Fluid (supercritical or subcritical phases), x1 = 0.5	299.12 ± 1.6
493.15 K, 4423 kPa, Fluid (supercritical or subcritical phases), x1 = 0.8	170.03 ± 1
493.15 K, 4439 kPa, Fluid (supercritical or subcritical phases), x1 = 0.9	189.73 ± 0.98
493.15 K, 4462 kPa, Fluid (supercritical or subcritical phases), x1 = 0.8	176.28 ± 0.95
493.15 K, 4502 kPa, Fluid (supercritical or subcritical phases), x1 = 0.8	181.09 ± 1
493.15 K, 4518 kPa, Fluid (supercritical or subcritical phases), x1 = 0.9	202.67 ± 1.1
493.15 K, 4547 kPa, Fluid (supercritical or subcritical phases), x1 = 0.8	193.44 ± 1
493.15 K, 4549 kPa, Fluid (supercritical or subcritical phases), x1 = 0.5	320.48 ± 1.8
493.15 K, 4592 kPa, Fluid (supercritical or subcritical phases), x1 = 0.5	325.77 ± 1.7
493.15 K, 4629 kPa, Fluid (supercritical or subcritical phases), x1 = 0.9	221.01 ± 1.1
493.15 K, 4679 kPa, Fluid (supercritical or subcritical phases), x1 = 0.8	214.17 ± 1.1
493.15 K, 4710 kPa, Fluid (supercritical or subcritical phases), x1 = 0.8	219.94 ± 1.2
493.15 K, 4720 kPa, Fluid (supercritical or subcritical phases), x1 = 0.9	233.41 ± 1.2
493.15 K, 4743 kPa, Fluid (supercritical or subcritical phases), x1 = 0.9	236.88 ± 1.2
493.15 K, 4769 kPa, Fluid (supercritical or subcritical phases), x1 = 0.9	241.29 ± 1.3
493.15 K, 4776 kPa, Fluid (supercritical or subcritical phases), x1 = 0.5	345.09 ± 1.8
493.15 K, 4792 kPa, Fluid (supercritical or subcritical phases), x1 = 0.9	244.6 ± 1.3
493.15 K, 4810 kPa, Fluid (supercritical or subcritical phases), x1 = 0.8	235.05 ± 1.2
493.15 K, 4875 kPa, Fluid (supercritical or subcritical phases), x1 = 0.8	245.71 ± 1.3
493.15 K, 4935 kPa, Fluid (supercritical or subcritical phases), x1 = 0.8	258.95 ± 1.4
493.15 K, 5020 kPa, Fluid (supercritical or subcritical phases), x1 = 0.9	282.43 ± 1.4
493.15 K, 5042 kPa, Fluid (supercritical or subcritical phases), x1 = 0.8	272.94 ± 1.5
493.15 K, 5149 kPa, Fluid (supercritical or subcritical phases), x1 = 0.8	288.82 ± 1.5
493.15 K, 5207 kPa, Fluid (supercritical or subcritical phases), x1 = 0.5	373.47 ± 1.9
493.15 K, 5245 kPa, Fluid (supercritical or subcritical phases), x1 = 0.9	302.14 ± 1.5
493.15 K, 5306 kPa, Fluid (supercritical or subcritical phases), x1 = 0.8	299.65 ± 1.5
493.15 K, 5423 kPa, Fluid (supercritical or subcritical phases), x1 = 0.9	312.8 ± 1.6
493.15 K, 5594 kPa, Fluid (supercritical or subcritical phases), x1 = 0.8	315.85 ± 1.6
493.15 K, 5904 kPa, Fluid (supercritical or subcritical phases), x1 = 0.9	334.55 ± 1.7
493.15 K, 5953 kPa, Fluid (supercritical or subcritical phases), x1 = 0.5	398.77 ± 2
493.15 K, 5998 kPa, Fluid (supercritical or subcritical phases), x1 = 0.8	334.37 ± 1.7
493.15 K, 6296 kPa, Fluid (supercritical or subcritical phases), x1 = 0.8	345.91 ± 1.7
493.15 K, 6629 kPa, Fluid (supercritical or subcritical phases), x1 = 0.9	354.68 ± 1.8
493.15 K, 6775 kPa, Fluid (supercritical or subcritical phases), x1 = 0.5	417.91 ± 2.1
493.15 K, 7003 kPa, Fluid (supercritical or subcritical phases), x1 = 0.8	362.51 ± 1.8
493.15 K, 7649 kPa, Liquid, x1 = 0.2	510.49 ± 1
493.15 K, 8441 kPa, Fluid (supercritical or subcritical phases), x1 = 0.5	441.69 ± 2.2
493.15 K, 9382 kPa, Fluid (supercritical or subcritical phases), x1 = 0.5	452.03 ± 2.3
493.15 K, 10256 kPa, Fluid (supercritical or subcritical phases), x1 = 0.9	407.97 ± 2
493.15 K, 10826 kPa, Fluid (supercritical or subcritical phases), x1 = 0.8	418.91 ± 2.1
493.15 K, 11783 kPa, Fluid (supercritical or subcritical phases), x1 = 0.5	468.97 ± 2.4
493.15 K, 14598 kPa, Liquid, x1 = 0.2	548.05 ± 1.1

Liquid, x1 = 0.5
Conditions	mass density [kg/m3]
492.65 K	282.81 ± 1.7
492.95 K	270.96 ± 1.6
